Data taken from US5206148A, “Method for assaying aliphatic alcohol, aliphatic aldehyde or ω-carboxylic acid derivatives thereof” (Asahi Kasei Kogyo Kabushiki Kaisha, priority 1991, dated 1993).

Tests used:
Assay type in all cases: biochemical, Streptomyces sp. AC 8205
ω-carboxyalcohol oxidase [1] = assay: Substrate specificity of ω-carboxyalcohol oxidase (peroxidase/4-aminoantipyrine H2O2 assay); parameters: Relative Activity (%): concentration or dose not given beside the values; details: for Substrate specificity: statement in words, from Table 2; for Relative Activity (%): substrate in place of 12-hydroxydodecanoic acid, activity on 12-hydroxydodecanoic acid defined as 100, pH 7.5, 37° C., 10 mins.
Protocol: (§1) An enzyme solution (25 μl) was added to the above mixture (0.5 ml), followed by incubation at 37° C. for exactly 10 mins., whereupon sodium dodecyl sulfate (SDS) (0.5 ml) was added thereto, then absorbance at 545 nm was measured. One unit of enzyme is defined by the activity which generates 1 μmole of hydrogen peroxide per minute.
Assay method: In the assay method illustrated at item 1. hereinabove, 12-hydroxydodecanoic acid was replaced by the substrates indicated in Table 2, and the resulting relative activities were produced, defining the activity on 12-hydroxydodecanoic acid as 100.

ω-carboxyalcohol oxidase [2] = assay: Effects of reagents (detergents and metal ions) on enzyme activity; details: None = 100
Protocol: as §1
The effects of various detergent and metal ions are shown in Table 4, in which the listed reagents show no significant effect on the enzyme. Activities of the enzyme are measured by adding each listed detergent and metal ion to the assay method described above at item 1.

ω-carboxyalcohol oxidase [3] = assay: Utilization of coenzyme (absorbance at 340 nm); details: for A340nm: 37° C., one unit of enzyme, 12-hydroxydodecanoic acid; for Utilization of coenzyme: statement in words
Protocol: One unit of enzyme is added to the reaction mixture (2.0 ml) hereinabove and the absorbance at 340 nm and 37° C. is continuously measured.

CCCCCCCCCCCCO [H3 C--(CH2)11 --OH]
Substrate specificity (ω-carboxyalcohol oxidase [1]): has substrate specificity
Relative Activity (%) (ω-carboxyalcohol oxidase [1]): 86.1%

CCCCCCCCCCCCCCCCO [H3 C--(CH2)15 --OH]
Relative Activity (%) (ω-carboxyalcohol oxidase [1]): 60.2%

CCCCCCO [H3 C--(CH2)5 --OH]
Substrate specificity (ω-carboxyalcohol oxidase [1]): has substrate specificity
Relative Activity (%) (ω-carboxyalcohol oxidase [1]): 88.5%

[Cl][Mn][Cl] [MnCl2]
Relative Activity (%) (ω-carboxyalcohol oxidase [2]; reagent 1 mM): 102.4%

Triton X-100
Relative Activity (%) (ω-carboxyalcohol oxidase [2]; reagent 1.0%): 93.1%

CCCCCCCCC=CCCCCCCCCO [H3 C--(CH2)7 --CH=CH--(CH2)8 --OH]
Relative Activity (%) (ω-carboxyalcohol oxidase [1]): 59.1%

NC(=O)c1ccc[n+]([C@@H]2O[C@H](COP(=O)([O-])OP(=O)(O)OC[C@H]3O[C@@H](n4cnc5c(N)ncnc54)[C@H](O)[C@@H]3O)[C@@H](O)[C@H]2O)c1 [NAD]
A340nm (ω-carboxyalcohol oxidase [3]; 0 min.): 0.062
A340nm (ω-carboxyalcohol oxidase [3]; 2 mins.): 0.061
A340nm (ω-carboxyalcohol oxidase [3]; 4 mins.): 0.060
A340nm (ω-carboxyalcohol oxidase [3]; 6 mins.): 0.062
A340nm (ω-carboxyalcohol oxidase [3]; 8 mins.): 0.061
A340nm (ω-carboxyalcohol oxidase [3]; 10 mins.): 0.061
Utilization of coenzyme (ω-carboxyalcohol oxidase [3]): No utilization

CCCCCCCCO [H3 C--(CH2)7 --OH]
Substrate specificity (ω-carboxyalcohol oxidase [1]): has substrate specificity
Relative Activity (%) (ω-carboxyalcohol oxidase [1]): 88.5%

[Cl-].[Cl-].[Mg+2] [MgCl2]
Relative Activity (%) (ω-carboxyalcohol oxidase [2]; reagent 1 mM): 98.2%

NC(=O)c1ccc[n+]([C@@H]2O[C@H](COP(=O)([O-])OP(=O)(O)OC[C@H]3O[C@@H](n4cnc5c(N)ncnc54)[C@H](OP(=O)(O)O)[C@@H]3O)[C@@H](O)[C@H]2O)c1 [NADP]
A340nm (ω-carboxyalcohol oxidase [3]; 0 min.): 0.046
A340nm (ω-carboxyalcohol oxidase [3]; 2 mins.): 0.047
A340nm (ω-carboxyalcohol oxidase [3]; 4 mins.): 0.045
A340nm (ω-carboxyalcohol oxidase [3]; 6 mins.): 0.046
A340nm (ω-carboxyalcohol oxidase [3]; 8 mins.): 0.046
A340nm (ω-carboxyalcohol oxidase [3]; 10 mins.): 0.047
Utilization of coenzyme (ω-carboxyalcohol oxidase [3]): No utilization

[Ca+2].[Cl-].[Cl-] [CaCl]
Relative Activity (%) (ω-carboxyalcohol oxidase [2]; reagent 1 mM): 97.0%

C[C@H](CCC(=O)O)[C@H]1CC[C@H]2[C@@H]3[C@H](O)C[C@@H]4C[C@H](O)CC[C@]4(C)[C@H]3C[C@H](O)[C@]12C [Cholate]
Relative Activity (%) (ω-carboxyalcohol oxidase [2]; reagent 10 mM): 94.9%

O=C(O)CCCCCCCCCCCCCCCO [HO2 C--(CH2)15 --OH, 16-hydroxy hexadecanoic acid]
Relative Activity (%) (ω-carboxyalcohol oxidase [1]): 65.5%

O=C(O)CCCCCCCCCCCO [HO2 C--(CH2)11 --OH, 12-hydroxydodecanoic acid]
Substrate specificity (ω-carboxyalcohol oxidase [1]): has substrate specificity
Relative Activity (%) (ω-carboxyalcohol oxidase [1]): 100%

CCCCCCCCCCCCCCO [H3 C--(CH2)13 --OH]
Relative Activity (%) (ω-carboxyalcohol oxidase [1]): 76.1%

CCCO [H3 C--(CH2)2 --OH]
Relative Activity (%) (ω-carboxyalcohol oxidase [1]): 6.6%

Cl.N [NH4 Cl]
Relative Activity (%) (ω-carboxyalcohol oxidase [2]; reagent 100 mM): 89.0%

CCO [H3 C--CH2 --OH, ethanol]
Substrate specificity (ω-carboxyalcohol oxidase [1]): no specificity
Relative Activity (%) (ω-carboxyalcohol oxidase [1]): 0%

[Cl-].[Na+] [NaCl]
Relative Activity (%) (ω-carboxyalcohol oxidase [2]; reagent 100 mM): 95.1%

OCC(O)CO [glycerol]
Substrate specificity (ω-carboxyalcohol oxidase [1]): no specificity
Relative Activity (%) (ω-carboxyalcohol oxidase [1]): 0%

CCCCO [H3 C--(CH2)3 --OH]
Relative Activity (%) (ω-carboxyalcohol oxidase [1]): 76.1%

CO [H3 C--OH, methanol]
Substrate specificity (ω-carboxyalcohol oxidase [1]): no specificity
Relative Activity (%) (ω-carboxyalcohol oxidase [1]): 0%

[Cl-].[K+] [KCl]
Relative Activity (%) (ω-carboxyalcohol oxidase [2]; reagent 100 mM): 97.6%

CCCCCCCCCCO [H3 C--(CH2)9 --OH]
Substrate specificity (ω-carboxyalcohol oxidase [1]): has substrate specificity
Relative Activity (%) (ω-carboxyalcohol oxidase [1]): 87.6%

C[C@H](CCC(=O)O)[C@H]1CC[C@H]2[C@@H]3CC[C@@H]4C[C@H](O)CC[C@]4(C)[C@H]3C[C@H](O)[C@]12C [Deoxycholate]
Relative Activity (%) (ω-carboxyalcohol oxidase [2]; reagent 10 mM): 94.9%
